According to the NIST ThermoML archive (doi:10.1021/je700260f):
± gives the expanded uncertainty stated by the source.

Conditions: 333.13 K, Liquid, Vibrating tube method

With FC(C(F)(F)F)C(F)(F)F [1,1,1,2,3,3,3-heptafluoropropane] as the molecule, how does the mass density (1839 kPa) read?
The mass density was 1229.7 ± 1.5 kg/m3.

And the mass density (1866 kPa)?
Its mass density is 1229.9 ± 1.5 kg/m3.

And the mass density (1898 kPa)?
Its mass density is 1230.4 ± 1.5 kg/m3.

And the mass density (1924 kPa)?
The mass density was 1231 ± 1.5 kg/m3.

And the mass density (1944 kPa)?
Its mass density is 1231.2 ± 1.5 kg/m3.

And the mass density (1976 kPa)?
The mass density was 1231.8 ± 1.5 kg/m3.

And the mass density (2004 kPa)?
Its mass density is 1232.3 ± 1.5 kg/m3.

What about the mass density (2034 kPa) of the same molecule?
Its mass density is 1232.9 ± 1.5 kg/m3.

What about the mass density (2056 kPa) of the same molecule?
Its mass density is 1233.2 ± 1.5 kg/m3.

What about the mass density (2088 kPa) of the same molecule?
The mass density was 1233.7 ± 1.5 kg/m3.

What about the mass density (2113 kPa) of the same molecule?
Its mass density is 1234.2 ± 1.5 kg/m3.

And the mass density (2138 kPa)?
Its mass density is 1234.6 ± 1.5 kg/m3.

And the mass density (2357 kPa)?
Its mass density is 1238.4 ± 1.5 kg/m3.

What about the mass density (2604 kPa) of the same molecule?
The mass density was 1242.4 ± 1.5 kg/m3.

What about the mass density (2744 kPa) of the same molecule?
The mass density was 1244.5 ± 1.5 kg/m3.

And the mass density (2770 kPa)?
Its mass density is 1244.9 ± 1.5 kg/m3.

And the mass density (2793 kPa)?
Its mass density is 1245.1 ± 1.5 kg/m3.

What about the mass density (2828 kPa) of the same molecule?
The mass density was 1245.9 ± 1.5 kg/m3.

And the mass density (2863 kPa)?
Its mass density is 1246.2 ± 1.5 kg/m3.

And the mass density (2890 kPa)?
Its mass density is 1246.6 ± 1.5 kg/m3.

What about the mass density (2915 kPa) of the same molecule?
The mass density was 1247.1 ± 1.5 kg/m3.

What about the mass density (2950 kPa) of the same molecule?
The mass density was 1247.6 ± 1.5 kg/m3.

What about the mass density (3233 kPa) of the same molecule?
Its mass density is 1251.7 ± 1.5 kg/m3.

And the mass density (3261 kPa)?
The mass density was 1252.3 ± 1.5 kg/m3.

What about the mass density (3298 kPa) of the same molecule?
Its mass density is 1252.9 ± 1.5 kg/m3.

What about the mass density (3326 kPa) of the same molecule?
The mass density was 1253.1 ± 1.5 kg/m3.

What about the mass density (3358 kPa) of the same molecule?
The mass density was 1253.7 ± 1.5 kg/m3.

What about the mass density (3391 kPa) of the same molecule?
The mass density was 1254.2 ± 1.5 kg/m3.

And the mass density (3420 kPa)?
The mass density was 1254.6 ± 1.5 kg/m3.

What about the mass density (3448 kPa) of the same molecule?
Its mass density is 1255 ± 1.5 kg/m3.

What about the mass density (3488 kPa) of the same molecule?
The mass density was 1255.4 ± 1.5 kg/m3.

And the mass density (3517 kPa)?
Its mass density is 1256 ± 1.5 kg/m3.

What about the mass density (3542 kPa) of the same molecule?
Its mass density is 1256.2 ± 1.5 kg/m3.

What about the mass density (3575 kPa) of the same molecule?
The mass density was 1256.7 ± 1.5 kg/m3.

And the mass density (3608 kPa)?
Its mass density is 1257.2 ± 1.5 kg/m3.

And the mass density (3641 kPa)?
The mass density was 1257.6 ± 1.5 kg/m3.

And the mass density (3670 kPa)?
The mass density was 1258.2 ± 1.5 kg/m3.

What about the mass density (3699 kPa) of the same molecule?
Its mass density is 1258.5 ± 1.5 kg/m3.

And the mass density (3726 kPa)?
The mass density was 1258.9 ± 1.5 kg/m3.

And the mass density (3767 kPa)?
The mass density was 1259.4 ± 1.5 kg/m3.

What about the mass density (3793 kPa) of the same molecule?
Its mass density is 1259.7 ± 1.5 kg/m3.

And the mass density (3826 kPa)?
Its mass density is 1260.3 ± 1.5 kg/m3.

What about the mass density (3860 kPa) of the same molecule?
The mass density was 1260.8 ± 1.5 kg/m3.

What about the mass density (3894 kPa) of the same molecule?
Its mass density is 1261.2 ± 1.5 kg/m3.

And the mass density (3924 kPa)?
The mass density was 1261.5 ± 1.5 kg/m3.

What about the mass density (3950 kPa) of the same molecule?
Its mass density is 1261.9 ± 1.5 kg/m3.

What about the mass density (3984 kPa) of the same molecule?
The mass density was 1262.2 ± 1.5 kg/m3.

What about the mass density (4010 kPa) of the same molecule?
The mass density was 1262.9 ± 1.5 kg/m3.

What about the mass density (4041 kPa) of the same molecule?
The mass density was 1263.1 ± 1.5 kg/m3.

What about the mass density (4072 kPa) of the same molecule?
The mass density was 1263.5 ± 1.5 kg/m3.

And the mass density (4105 kPa)?
Its mass density is 1264 ± 1.5 kg/m3.

And the mass density (4143 kPa)?
The mass density was 1264.4 ± 1.5 kg/m3.
